In ChEMBL document CHEMBL1157323, “Chloriolide, a 12-membered macrolide from Chloridium virescens var. chlamydosporum (NRRL 37636)” (J Nat Prod, 2006):
Activity calls are given as the source filed them.

Tests used:
Assay type in all cases: functional, organism-based
Aspergillus flavus = test: Antifungal activity against Aspergillus flavus NRRL 6541 at 200 ug/disk by standard disk assay
Fusarium verticillioides = test: Antifungal activity against Fusarium verticillioides NRRL 25457 at 200 ug/disk by standard disk assay
Staphylococcus aureus = test: Antibacterial activity against Staphylococcus aureus ATCC 29213
Escherichia coli = test: Antibacterial activity against Escherichia coli ATCC 25922
Bacillus subtilis = test: Antibacterial activity against Bacillus subtilis ATCC 6051

Measured: Activity

C[C@H]1CCC[C@@H](O)/C=C\[C@H](O)/C=C/C(=O)O1
inactive: Aspergillus flavus | Fusarium verticillioides | Staphylococcus aureus | Escherichia coli | Bacillus subtilis
